Measurements reported in patent US20060178424A1, “Preventing atrial fibrillation (af) with the use of stain drugs” (priority 2003, published 2006).
Entries after “also recorded” stand apart in the source; their conditions may differ.

Columns and labels:
[1] = General properties (body weight, hemodynamic variables) at open-chest study; format: in vivo, dog; settings: mean±SEM; for Body weight: ATP with oral treatment
Description: (§1) Unipolar leads were inserted through jugular veins into the right ventricular (RV) apex and right atrial (RA) appendage under fluoroscopic guidance and connected to pacemakers (Medtronic) in subcutaneous pockets in the neck. A bipolar electrode was also inserted into the RA for atrial stimulation and recording during serial electrophysiological study (EPS). AV block was created by radiofrequency catheter ablation to control ventricular response during atrial tachypacing (ATP) and the RV pacemaker was programmed to pace at 80 bpm.
(§2) Body temperature was maintained at 37° C., and a femoral artery and both femoral veins were cannulated for pressure monitoring and drug administration. A median sternotomy was performed, and bipolar electrodes were hooked to the RA and left atrial (LA) appendage for recording and stimulation. A programmable stimulator (Digital Cardiovascular Instruments) was used to deliver twice-threshold currents. […] AF duration was assessed as described above and AF vulnerability was determined as the percentage of atrial sites at which AF could be induced by single extrastimuli.

[2] = test system: atrial tachycardia-induced remodeling; settings: dog, cited from earlier work; for Prevention of effects of 1-week atrial tachycardia: literature refs 7-9
[3] = test system: atrial tachypaced dogs (atrial tachycardia-induced remodeling); experiment: Serial closed-chest electrophysiological study during 7-day atrial tachypacing (400 bpm); format: in vivo, dog; settings: 7-day ATP, in words
Description: as §1
(§3) After 24 hours for recovery, a baseline closed-chest EPS was performed under anesthesia with ketamine, diazepam, and isoflurane, and then ATP (400 bpm) was initiated. Closed-chest EPS was repeated at 2,4 and 7 days of ATP and a final open-chest EPS was performed on day 8 under anesthesia with morphine and α-chloralose.

[4] = test system: atrial tachypaced dogs (atrial tachycardia-induced remodeling); experiment: Final open-chest electrophysiological study after atrial tachypacing; format: in vivo, dog
Description: as §1, §3, §2

CCC(C)(C)C(=O)O[C@H]1C[C@@H](C)C=C2C=C[C@H](C)[C@H](CC[C@@H]3C[C@@H](O)CC(=O)O3)[C@H]21 [simvastatin]
Diastolic BP [1]: 60 ± 7 mm Hg | HR (heart rate) [1]: 169 ± 6 bpm | LAP (left atrial pressure) [1]: 8 ± 1 mm Hg | LVEDP (left ventricular end-diastolic pressure) [1]: 9 ± 1 mm Hg | LVSP (left ventricular systolic pressure) [1]: 127 ± 5 mm Hg | Systolic BP [1]: 131 ± 4 mm Hg | Body weight [1]: 29 ± 2 kg

CCCCc1oc2ccccc2c1C(=O)c1cc(I)c(OCCN(CC)CC)c(I)c1 [amiodarone]
Prevention of effects of 1-week atrial tachycardia [2]: prevent the effects of 1-week atrial tachycardia in the dog

O=C1O[C@H]([C@@H](O)CO)C(O)=C1O [vitamin C]
Atrial tachycardia-induced AF promotion (AF duration progression) versus ATP-only [3]: not significantly different from ATP-only dogs | ERP values as a function of cycle length versus ATP-only dogs ([4]; RA appendage, final open-chest study, in words): No significant differences | AF requiring cardioversion for termination, share of dogs ([4]; following ATP, ATP-only 57%): 33% | Effect on tachypacing-induced ERP shortening and AF promotion (remodeling) ([4]; one week of atrial tachypacing, in words): unaffected; also recorded: not altered; also recorded: not shared; also recorded: not observed | Diastolic BP [1]: 41 ± 6 mm Hg | HR (heart rate) [1]: 145 ± 9 bpm | LAP (left atrial pressure) [1]: 5 ± 1 mm Hg | LVEDP (left ventricular end-diastolic pressure) [1]: 6 ± 1 mm Hg | LVSP (left ventricular systolic pressure) [1]: 107 ± 8 mm Hg | Systolic BP [1]: 107 ± 8 mm Hg | Body weight [1]: 32 ± 2 kg | Attenuation of ERP changes caused by 48-hour atrial tachycardia ([2]; Carnes et al): effectiveness

COCC(=O)O[C@]1(CCN(C)CCCc2nc3ccccc3[nH]2)CCc2cc(F)ccc2[C@@H]1C(C)C [mibefradil]
Prevention of effects of 1-week atrial tachycardia [2]: prevent the effects of 1-week atrial tachycardia in the dog
